Patent publication US20200199541A1, “BLOOD VESSEL ORGANOID, METHODS OF PRODUCING AND USING SAID ORGANOIDS” (IMBA - INSTITUT FÜR MOLEKULARE BIOTECHNOLOGIE GMBH, priority 2017, published 2020)
Entries after “also recorded” stand apart in the source; their conditions may differ.

How the values were obtained:
[1] = test system: human blood vessel organoids; experiment: Diabetic basement membrane thickening (Collagen IV) in human blood vessel organoids cultured in diabetic medium; format: cell-based; settings: for high glucose/TNFα/IL6-induced thickening of the basal blood vessel membrane (Collagen IV): diabetic medium 75 mM Glucose, 1 ng/mL TNFα, 1 ng/mL IL-6, drug doses (DAPT 25 μM); for increase of Col IV+ basement membrane under diabetic conditions: 75 mM Glucose, 1 ng/mL IL-6, 1 ng/mL TNF-α, 10 μM RO4929097, 1 μM Dehydroxy-LY411575, 1 μM LY411575; for diabetic basement membrane thickening (Col IV) on blocking Notch pathway members: 2 weeks diabetic media (hyperglycemia + IL-6 + TNF-a), blocking antibodies or non-crosslinked recombinant proteins
Procedure: Modeling diabetic vasculopathy in human vascular organoids. Established endothelial networks in vascular organoids were cultured in a non-diabetic control medium (17 mM Glucose) or diabetic medium (75 mM Glucose, in the presence of absence of human TNFα (1 ng/mL, Invitrogen PHC3011) and/or IL-6 (1 ng/mL, Peprotech 200-06)) for up to 3 weeks before the basement membrane was investigated by Collagen type IV immunostaining and electron microscopy. D-Mannitol was used in non-diabetic media to control for hyperosmotic effects. For basement membrane quantifications, acquired z-stacks were analysed and the thickness of ColIV coats around luminal structures were measured using ImageJ software. For drug treatment, organoids were exposed to diabetic medium (75 mM Glucose, 1 ng/mL human TNFα, and 1 ng/mL IL-6) in the presence or absence of the following drugs: 2,4-Thiazolidinedione (5 mM, Abcam ab144811), Metformin (5 mM, Abcam ab120847), Acarbose (80 μg/mL, Sigma A8980), […] (100 μM, Sigma N3538), Diphenyleneiodonium (10 μM), Glimepiride (30 nM, Sigma G2295), Pioglitazone (10 μM, Sigma E6910). The following small molecule inhibitors were used: N-Acetyl-L-cysteine (500 μM, Sigma, A7250), CHIR99021 (10 μM, Tocris 4423), Goe6976 (100nM, Merck U51365250), MK2206 (10 μM, EubioS1078), QNZ (10 μM, Eubio […]), 5B203580 (10 μM, Eubio […]), SCH772984 (500 nM, Eubio […], Calbiochem 688000), DAPT (25 μM, Sigma D5942), 5B431542 (10 μM, Abcam ab120163).

[2] = test system: human vascular organoid transplants; experiment: Vessel leakage (FITC-Dextran extravasation) of human vascular organoid transplants in diabetic STZ mice; format: in vivo, mouse; settings: diabetic STZ NSG mice, DAPT 5 mg/kg
Procedure: (§1) Modeling diabetic vasculopathy in human vascular organoids in vivo. Immunodeficient NSG mice carrying human vascular organoid transplants were daily i.p. injected with 40 mg/kg Streptozotocin (STZ) (Merck, 572201) for 5 consecutive days. Every day, STZ was freshly dissolved in citrate buffer (pH4.6) and immediately used. Diabetes was confirmed (blood glucose >300 mg/dL) by measuring non-fasting glucose using the OneTouch UltraEasy system (Lifetouch, AW 06637502C). DAPT (Selleckchem 52215) was dissolved in ethanol and injected with 90% cornoil for 5 consecutive days at 5 mg/kg with 2 days of no treatment per week. Anti-Notch3 blocking antibodies (R&D AF1559) were injected 3 time/week at lmg/kg. For quantifying vessel leakage, the FITC-Dextran^+ area was measured and normalized to the area of perfused human blood vessels (hCD31^+) using the FIJI software. This ratio was then further normalized to control non-diabetic mice. Permeability of long-term DAPT treated vessels were measured after 2 days of treatment stop to avoid measuring acute effects of DAPT on vessel permeability.

[3] = test system: human blood vessel organoids; experiment: Diabetic basement membrane thickening (Collagen IV) in human blood vessel organoids cultured in diabetic medium; format: cell-based; settings: diabetic cocktail, indicated DAPT doses (FIG. 5)
[4] = test system: human vascular organoid transplants; experiment: Human CD31+ blood vessel density of vascular organoid transplants in diabetic STZ mice; format: in vivo, mouse; settings: diabetic STZ NSG mice, DAPT 5 mg/kg
Procedure: as §1

Molecule: CN(C)C(=N)N=C(N)N [metformin, Metformin]
- high glucose/TNFα/IL6-induced thickening of the basal blood vessel membrane (Collagen IV) [1]: none of the medicines that we tested

Molecule: c1ccc2c(c1)[I+]c1ccccc1-2 [diphenyleneiodonium, Diphenyleneiodonium]
- high glucose/TNFα/IL6-induced thickening of the basal blood vessel membrane (Collagen IV) [1]: none of the medicines that we tested

Molecule: C[C@H](NC(=O)[C@@H](O)c1cc(F)cc(F)c1)C(=O)N[C@@H]1C(=O)N(C)c2ccccc2-c2ccccc21 [LY411575]
- increase of Col IV+ basement membrane under diabetic conditions [1]: prevent the increase of basement membrane (Col IV) under diabetic conditions

Molecule: C[C@H](NC(=O)Cc1cc(F)cc(F)c1)C(=O)N[C@H](C(=O)OC(C)(C)C)c1ccccc1 [DAPT]
- vessel permeability / leakage (FITC-Dextran extravasation) [2]: normalized diabetic vessel permeability; also recorded: excessive blood vessel leakiness was rescued
- dose dependence of prevention of basement membrane thickening (ColIV thickness) [3]: dose dependent; also recorded: dose-dependent
- human blood vessel (CD31+) density in transplanted vascular organoids [4]: restores human vessel density; also recorded: rescued the loss of CD31^+ human blood vessels
- high glucose/TNFα/IL6-induced thickening of the basal blood vessel membrane (Collagen IV) [1]: abrogates thickening of the vascular basement membrane; also recorded: can prevent diabetic vascular basement membrane thickening; also recorded: completely abrogated the expansion of collagen IV and basal membrane thickening; also recorded: nearly completely prevented the thickening of the basal membrane

Molecule: CC(C)(C(=O)NCC(F)(F)C(F)(F)F)C(=O)N[C@@H]1C(=O)Nc2ccccc2-c2ccccc21 [RO4929097]
- increase of Col IV+ basement membrane under diabetic conditions [1]: prevent the increase of basement membrane (Col IV) under diabetic conditions

Molecule: CCC1=C(C)CN(C(=O)NCCc2ccc(S(=O)(=O)NC(=O)N[C@H]3CC[C@H](C)CC3)cc2)C1=O [glimepiride, Glimepiride]
- high glucose/TNFα/IL6-induced thickening of the basal blood vessel membrane (Collagen IV) [1]: none of the medicines that we tested

Molecule: CC(C)[C@H]1CC[C@H](C(=O)N[C@H](Cc2ccccc2)C(=O)O)CC1 [nateglindine, Nateglindine]
- high glucose/TNFα/IL6-induced thickening of the basal blood vessel membrane (Collagen IV) [1]: none of the medicines that we tested

Molecule: D114: non-crosslinked recombinant protein (Notch ligand, Delta-like protein 4) used as blocker
- diabetic basement membrane thickening (Col IV) on blocking Notch pathway members [1]: completely blocked basement membrane thickening

Molecule: C[C@H](NC(=O)Cc1cc(F)cc(F)c1)C(=O)N[C@@H]1C(=O)N(C)c2ccccc2-c2ccccc21 [Dehydroxy-LY411575]
- increase of Col IV+ basement membrane under diabetic conditions [1]: prevent the increase of basement membrane (Col IV) under diabetic conditions

Molecule: O=C1CSC(=O)N1 [thiazolidinedione, 2,4-Thiazolidinedione]
- high glucose/TNFα/IL6-induced thickening of the basal blood vessel membrane (Collagen IV) [1]: none of the medicines that we tested

B1: D111: non-crosslinked recombinant protein (Notch ligand) used as blocker (protein, UniProt O00548 18-723, looked up)
Delta-like protein 1: QVWSSGVFELKLQEFVNKKGLLGNRNCCRGGAGPPPCACRTFFRVCLKHYQASVSPEPPCTYGSAVTPVLGVDSFSLPDGGGADSAFSNPIRFPFGFTWPGTFSLIIEALHTDSPDDLATENPERLISRLATQRHLTVGEEWSQDLHSSGRTDLKYSYRFVCDEHYYGEGCSVFCRPRDDAFGHFTCGERGEKVCNPGWKGPYCTEPICLPGCDEQHGFCDKPGECKCRVGWQGRYCDECIRYPGCLHGTCQQPWQCNCQEGWGGLFCNQDLNYCTHHKPCKNGATCTNTGQGSYTCSCRPGYTGATCELGIDECDPSPCKNGGSCTDLENSYSCTCPPGFYGKICELSAMTCADGPCFNGGRCSDSPDGGYSCRCPVGYSGFNCEKKIDYCSSSPCSNGAKCVDLGDAYLCRCQAGFSGRHCDDNVDDCASSPCANGGTCRDGVNDFSCTCPPGYTGRNCSAPVSRCEHAPCHNGATCHERGHRYVCECARGYGGPNCQFLLPELPPGPAVVDLTEKLEGQGGPFPWVAVCAGVILVLMLLLGCAAVVVCVRLRLQKHRPPADPCRGETETMNNLANCQREKDISVSIIGATQIKNTNKKADFHGDHSADKNGFKARYPAVDYNLVQDLKGDDTAVRDAHSKRDTKCQPQGSSGEEKGTPTTLRGGEASERKRPDSGCSTSKDTKYQSVYVISEEKDECVIATEV
- diabetic basement membrane thickening (Col IV) on blocking Notch pathway members [1]: did not impact on the diabetes mediated thickening of the vascular basement membrane
